Laboratory results from patent publication US10328164B2, “Radiopharmaceutical products” (GE HEALTHCARE LIMITED, priority 2006, dated 2019).

Details: tetrofosmin kit with ascorbic acid radioprotectant, without air addition step; post preparation
From the text: The tetrofosmin kit may optionally comprise a radioprotectant, as defined above. […] Med. Comm., 21, 845-849 (2000)] and the Myoview™ Package Instructions.

CCOCC[PH+](CCOCC)CC[PH+](CCOCC)CCOCC.CCOCC[PH+](CCOCC)CC[PH+](CCOCC)CCOCC.[O]=[99Tc]=[O] [^99mTc-tetrofosmin, ^99mTc(O)2(tetrofosmin)2^+]
post-reconstitution stability: up to 12 hours
